Patent publication US7033829B2, “Method to inhibit cell growth using oligonucleotides” (Trustees of Boston University, priority 2000, dated 2006)
{P} = phosphate

How the values were obtained:
[1] = system: Cloudman S91 mouse melanoma cells; test: Melanin content of Cloudman S91 melanoma cells; format: cell-based; conditions: for increase in melanin content: variations of the 9-mer, cells not given; for melanogenic activity: with 5′ phosphate, FIG. 18
Protocol: (§1) The induction of melanogenesis in Cloudman S91 mouse melanoma cells by a five-nucleotide oligomer CATAC (SEQ ID NO: 6) and a nine-nucleotide oligomer, GAGTATGAG (SEQ ID NO: 1) was examined. Duplicates of Cloudman S91 murine melanoma cells were incubated with either 100 μM oligo or an equal volume of diluent (H2O) for 5 days. The cells were then collected, counted, and an equal number of cells were pelleted for melanin analysis. […] Variations of this oligonucleotide were evaluated: a scrambled 9-mer (TAGGAGGAT; SEQ ID NO: 2) and two truncated versions, a 7-mer (AGTATGA; SEQ ID NO: 3) and second 5-mer (GTATG; SEQ ID NO: 4). […] The truncated versions (SEQ ID NOs: 3 and 4) were also active, inducing 640% and 670% increases, respectively.
Cultures of Cloudman S91 murine melanoma cells were treated for 5 days with SEQ ID NO: 1, SEQ ID NO: 6, pTpT as a positive control, or an equal volume of diluent as a negative control. […] SEQ ID NO: 6 produced a slight increase in melanin, to 165+/−77% of control levels. SEQ ID NO: 1 stimulated melanin content to an average of 600+/−260% of control levels.
pTpT, shown previously to stimulate pigmentation in these cells, was used as a reference treatment, and diluent alone was used as a negative control. After five days of treatment with the oligonucleotides, the cells were collected, counted, and an equal number of cells were pelleted for melanin analysis. […] SEQ ID NO: 5, representing the telomere over-hang sequence, also at 10 μM, increased the melanin level to 10 times that of control cells.
S91 cells were cultured in the presence of diluent alone, pTpT p9mer (SEQ ID NO: 1), p7mer (AGTATGA; SEQ ID NO: 7) or p5mer #2 (SEQ ID NO: 4). […] Both SEQ ID NOS: 4 and 7 stimulated a 7–8 fold increase in melanin.
S91 cells were cultured for 5 days in the presence of the thymidine dinucleotides or SEQ ID NO: 1 with or without a 5′ phosphate or diluent alone as a negative control.
Cultures of S91 mouse melanoma cells (100,000 cells/38 cm^2) were treated with 100 μM pTpT or phosphorothioate pTpT (pTspT) (FIG. 22) or 40 μM 11mer-1 or the phosphorothioate 11mer-1 (11mer-1-S) (FIG. 23) for 6 days and were then collected, counted and assayed for melanin content.
Duplicate cultures of S91 cells (100,000 cells/39 cm^2) were either sham-irradiated or irradiated with 5 mJ/cm^2 solar-simulated light from a 1 kW xenon arc solar-simulator (XMN 1000-21, Optical Radiation, Azuza, Calif.) metered at […] using a research radiometer (model IL1700A, International Light, Newburyport, Mass.). Two sham-irradiated plates were then supplemented with 100 μM pTspT and two irradiated cultures were similarly treated with pTspT. After one week, cells were collected, counted and analyzed for melanin content by dissolving the cell pellets in 1 N NaOH and measuring the optical density at […]. […] However, this response was blocked by the addition of pTspT (FIG. 24). In addition, the constitutive pigmentation of these cells was reduced by the pTspT in the sham-irradiated cultures, similar to the data presented in FIGS. 22 and 23.

[2] = system: Human squamous carcinoma cell line SCC12F cells; test: Cell growth / cell yield of SCC12F cells (Coulter counter); format: cell-based; conditions: after 2 days; FIG. 14
Protocol: Human squamous carcinoma cell line SCC12F cells were maintained in primary keratinocyte medium (300 ml DME, 100 ml F-12 nutrient supplement, 50 ml 10× adenine, 50 ml fetal bovine serum, 5 ml penicillin/streptomycin stock, and 0.5 ml of 10 μg/ml epidermal growth factor and hydrocortisone to final concentration of 1.4 μg/ml) and dosed with either water (diluent), 100 μM pTpT (T2, Midland Certified Reagent Company, Midland, Tex.) or 100 μM pdApdA (A2). Cells were harvested before dosing (day 0), and 1, 3, 4, and 5 days after dosage, and were counted by Coulter™ counter. After harvesting, the cells were processed for total RNA isolation and were analyzed by Northern blot. Addition of a control deoxyadenine dinucleotide (pdApdA), a compound very similar to pTpT but not readily dimerized by UV irradiation, and therefore rarely excised during the course of UV-induced DNA repair, has no effect.
In a second experiment, SCC12F cells were cultured as described above. Two or three days after seeding, the preconfluent cultures were given fresh medium supplemented with either 100 μM T2 or diluent as a control. Cells were collected daily by trypsinization and counted by Coulter™ counter. The cell yield in cultures treated with T2 was reduced by […] compared to that of paired control cultures after five days (FIG. 2). This corresponds to 2.3 population doublings in this time for control cells, compared with 1 doubling for T2-treated cells.
(§2) pTpT was previously found to inhibit cell cycle progression, at least in part through activation of p53 and subsequent upregulation of the cyclin dependent kinase inhibitor p21. Cultures of the human keratinocyte line SCC12F were treated with pTpT, SEQ ID NO: 1, SEQ ID NO: 6 or diluent alone as a negative control, collected and counted 48 hours later and processed for northern blot analysis of p21 mRNA expression. […] Thus, the sequences of the present invention activate p53 and inhibit cell proliferation similar to the effect of pTpT.
Exposure of keratinocytes to UVB irradiation affects the expression of genes involved in cell cycle arrest, DNA repair and cytokine production. Single-stranded oligonucleotides sharing sequence homology with the telomere 3′ overhang, when introduced into cells, mimic these UV effects. To identify other genes that may be similarly modulated, cells of keratinocyte origin (SCC12F; a human epidermal squamous cell carcinoma line provided by Dr. James Rheinwald of Harvard University) were exposed to solar simulated irradiation (SSR) (20 mJ/cm^2, measured at 285±5 nm), to an 11-base oligonucleotide (pGTTAGGGTTAG; SEQ ID NO:5) homologous to the telomere overhang (T-oligo), or to a complementary sequence as control [pCTAACCCTAAC; (SEQ ID NO:9) control oligonucleotide]. […] These are mitochondrial-transcribed genes whose encoded proteins participate in cellular respiration.

p21/Waf 1/Cip 1 gene = test: p21 mRNA Northern blot in SCC12F cells; format: cell-based, human; conditions: 48 hours
Protocol: as §1, §2

Jurkat cells = test: FACS cell cycle / apoptosis analysis of Jurkat cells; format: cell-based, human
Protocol: Oligonucleotides homologous to the telomere overhang repeat sequence (TTAGGG; SEQ ID NO:11), sequence (11mer-1: pGTTAGGGTTAG; SEQ ID NO: 5), complementary to this sequence (11mer-2: pCTAACCCTAAC; SEQ ID NO: 9) and unrelated to the telomere sequence (11mer-3: pGATCGATCGAT; SEQ ID NO: 10) were added to cultures of Jurkat cells, a line of human T cells, one of the cell types reported to undergo apoptosis in response to telomere disruption. Within 48 hours, 50% of the cells treated with 40 μM of SEQ ID NO: 5 had accumulated in the S phase, compared to 25–30% for control cells (p<0.0003, non-paired t-test; see FIGS. 19A–19D), and by 72 hours, 13% of these cells were apoptotic as determined by a sub-G0/G1 DNA content, compared to 2–3% of controls (p<0.007, non-paired t-test; see FIGS. 19E–19H). At 96 hours, 20±3% of the 11mer-1 treated cells were apoptotic compared with 3–5% of controls (p<0.0001, non-paired t-test). To exclude preferential uptake of the 11mer-1 as an explanation of its singular effects, Jurkat cells were treated with oligonucleotides labeled on the 3′ end with fluorescein phosphoramidite, then subjected to confocal microscopy and FACS analysis. The fluorescence intensity of the cells was the same after all treatments at 4 hours and 24 hours.
Three DNA oligonucleotides were designed initially: one homologous to the telomere overhang (11mer-1: pGTTAGGGTTAG; SEQ ID NO:5), one complementary to this sequence (11mer-2: pCTAACCCTAAC; SEQ ID NO:9) and one unrelated (11mer-3: pGATCGATCGAT; SEQ ID NO:10). For later experiments, additional 11 base oligonucleotides were designed: one a simple permutation of 11mer-1 (pGGGTTAGGGTT; SEQ ID NO:13), one with the same number of G residues but roughly 50% rather than 100% homology to the overhang (pTAGATGTGGTG; SEQ ID NO:14), and one with roughly 50% overhang homology but also containing cytosine bases (pCGGGCTTATTG; SEQ ID NO:15) (Midland Certified Reagent Company, Midland, Tex.). Cell Sources and Culture Human neonatal fibroblasts were established and cultured as previously described (Eller, M. S., et al., 1997, Proc Natl Acad Sci USA 94: 12627–12632). Fibroblasts from a Nijmegen breakage syndrome (NBS) patient (#GM07166) and an age-matched control (GM03399) were purchased from the NIGMS Human Cell Repository, Coriell Institute for Medical Research, Camden, N.J.) and cultured in DMEM/15% FBS. Saos-2 cells were purchased from the American Type Culture Collection (ATCC; Manassas, Va.). SCC12F cells were the kind gift of Dr. James Rheinwald, Harvard University. Cell Cycle Analysis The established line of human T lymphocytes, termed Jurkat cells (180,000 cells/ml) were plated in RPMI medium 1640 supplemented with 3% FBS (both from GIBCO/BRL, Gaithersburg, Md.). […] Cells were collected up to 96 hours after treatment, stained with propidium iodide and analyzed by FACS using a Becton-Dickinson FacsScan and CellQuest software. Caspase Activity
Oligonucleotides homologous to the 3′ overhang sequence (11mer-1: pGTTAGGGTTAG; SEQ ID NO:5), complementary to this sequence (11mer-2: pCTAACCCTAAC; SEQ ID NO:9) and unrelated to the telomere sequence (11mer-3: pGATCGATCGAT; SEQ ID NO:10) were synthesized. The three 11mer oligonucleotides were added to cultures of Jurkat cells, an established line of human T lymphocytes, a cell type reported to undergo apoptosis in response to telomere disruption [Karlseder, J., et al, (1999) Science 283, 1321–1325] and DNA damaging ionizing radiation (IR) [Vigorito, E., et al, (1999), Hematol Cell Ther 41, 153–161]. Duplicate cultures of Jurkat cells were treated with a final concentration of 40 μM 11mer-1, -2 or -3, oligonucleotides, or an equal volume of diluent (water) as a control. Cells were collected up to 96 hours after treatment, stained with propidium iodideandanalyzed by FACS. See also Example 13 and FIGS. 19A–19H.
To further confirm the specificity of these responses to the telomere overhang sequence, three variations were tested. […]

S91 cells = test: Cellular uptake of FAM-labeled oligonucleotides in S91 cells; format: in vitro ADME, mouse; conditions: 4 hours
Protocol: Fluorescein phosphoramidite (FAM) labeled oligonucleotides were added to cultures of S91 cells for 4 hours and the cells were then prepared for confocal microscopy. Nuclei, identified by staining with propidium iodide, appeared red and FAM-labeled oligonucleotides appeared green. Co-localization of red and green signals was assigned a yellow color by the computer. […] There was no change in the profile of oligonucleotide uptake after 6 and 24 hours.

Substance: AGTATGA (DNA, phosphodiester; further chemistry not fully specified) [SEQ ID NO: 3]
- increase in melanin content [1]: 640%

Substance: TTAGGG (Synthetic DNA Fragment) [SEQ ID NO: 11]
- melanogenic activity [1]: highly melanogenic

Substance: CATAC (DNA, phosphodiester; further chemistry not given here) [SEQ ID NO: 6]
- pigment content increase, of control levels ([1]; 100 μM, 5 days, three experiments): 61%±60%
- melanin content, of control cells ([1]; 5 days, FIG. 12): 165+/−77%
- reduction of cell number [2]: 25%
- increase in p21 mRNA level (p21/Waf 1/Cip 1 gene): 10–20%

Substance: TAGGAGGAT (DNA, phosphodiester; further chemistry not fully specified) [SEQ ID NO: 2]
- increase in melanin content [1]: 800%

Substance: pTspT
- melanogenesis ([1]; 100 μM dinucleotides or 40 μM 11mers, 6 days): did not
- constitutive pigmentation ([1]; 100 μM pTspT or 40 μM 11mer-1-S, 6 days or one week): reduced the constitutive pigmentation
- UV-induced doubling of melanin content ([1]; 100 μM, 5 mJ/cm^2 solar-simulated light, one week): blocked

Substance: CCCTAA (DNA, backbone not given here) [SEQ ID NO: 12]
- melanogenic activity [1]: less active

Substance: pTAGATGTGGTG (DNA, 5' {P}, backbone not given here) [SEQ ID NO:14]
- apoptotic cells by FACS analysis (Jurkat cells; 10 μM, 72 hours): 10%
- apoptotic cells by FACS analysis (Jurkat cells; 10 μM, 96 hours): 16%

Substance: pGGGTTAGGGTT [SEQ ID NO:13]
- apoptotic cells by FACS analysis (Jurkat cells; 10 μM, 72 hours): 13%
- apoptotic cells by FACS analysis (Jurkat cells; 10 μM, 96 hours): 28%
- activity of the two complete telomere overhang homologs (Jurkat cells; separate paired cultures): equal in activity

Substance: GTATG (DNA, phosphodiester; further chemistry not fully specified) [SEQ ID NO: 4]
- increase in melanin content [1]: 670%

Substance: pCGGGCTTATTG (DNA, 5' {P}, backbone not given here) [SEQ ID NO:15, reference compound]
- apoptosis and S-phase arrest (Jurkat cells; 10 μM): failed to induce apoptosis and only induced a moderate S-phase arrest
- apoptotic cells by FACS analysis (Jurkat cells; 10 μM, 72 hours): 2%
- apoptotic cells by FACS analysis (Jurkat cells; 10 μM, 96 hours): 2–4%

Substance: GAGTATGAG (DNA, phosphodiester; further chemistry not fully specified) [SEQ ID NO: 1 without 5′ phosphorylation]
- cellular uptake and localization (confocal microscopy, FACS) (S91 cells): only moderate uptake
